Counter-ions that a name gives are not always drawn. Some results are limits rather than exact numbers.

Consider 30 compounds from patent US5721234A, “Glutamate receptor antagonists: fused cycloalkylouinoxalinediones” (Warner-Lambert Company, priority 1995, dated 1998).

Assay [1] concerns the target kainate site (non-NMDA receptor). Description: Kainate site (non-NMDA receptor) binding affinity (London and Coyle).
Assay [2] addresses T1, glycine site of the NMDA receptor (Rattus norvegicus, UniProt P35439).
T1 construct: from tissue
Description: Glycine site of the NMDA receptor binding affinity (Jones et al.).

For assay [3], the target named is AMPA receptors. Description: AMPA receptor binding affinity (Honore et al.).
[4] abbreviates: Table 1, cyclohexyl-fused analogs.
Setting [5] is: Table 2, cyclopentyl-fused analogs.

By IC50 is commonly meant the concentration at which inhibition is half-maximal. A higher IC50 goes with weaker potency in that assay. For the compound `O=c1[nH]c2cc(Br)c3c(c2[nH]c1=O)CC(O)CC3` (stereo not shown) [Example 7, 6-bromo-9-hydroxy-1,4,7,8,9,10-hexahydro-benzo[f]quinoxaline-2,3-dione], the IC50 in assay [1] (setting [4]) came to 3 µM; in assay [2] (setting [4]) it was 1.5 µM; in assay [3] (setting [4]) it was 17 µM.
For the compound `O=c1[nH]c2cc(Br)c3c(c2[nH]c1=O)CC(OCc1ccccc1)CC3` (stereo not shown) [Example 8, 9-benzyloxy-6-bromo-1,4,7,8,9,10-hexahydro-benzo[f]quinoxaline-2,3-dione], the IC50 was above 100 µM in assay [1] (setting [4]) and 14 µM in assay [3] (setting [4]).
As to `O=c1[nH]c2cc(Br)c3c(c2[nH]c1=O)CC(NCc1ccccc1)CC3` (stereo not shown) [Example 19, 9-benzylamino-6-bromo-1,4,7,8,9,10-hexahydro-benzo[f]quinoxaline-2,3-dione], the results for the IC50 in assay [1] (setting [4]), in assay [2] (setting [4]) and in assay [3] (setting [4]) were above 100 µM, above 100 µM and 25 µM, respectively.
Regarding `CC(=O)NC1Cc2cc(Br)c3[nH]c(=O)c(=O)[nH]c3c2C1` (stereo not shown) [Example 28, N-(5-bromo-2,3-dioxo-2,3,4,7,8,9-hexahydro-1H-cyclopenta[f]quinoxalin-8-yl)-acetamide], the IC50 in assay [1] (setting [5]) and in assay [3] (setting [5]) was above 100 µM each time.
In the case of `CC(=O)NC1Cc2c([N+](=O)[O-])c(Br)c3[nH]c(=O)c(=O)[nH]c3c2C1` (stereo not shown) [Example 29, N-(5-bromo-6-nitro-2,3-dioxo-2,3,4,7,8,9-hexahydro-1H-cyclopenta[f]quinoxalin-8-yl)acetamide], the IC50 in assay [3] (setting [5]) is 5.1 µM.
For the compound `CC(=O)NC1Cc2ccc3[nH]c(=O)c(=O)[nH]c3c2C1` (stereo not shown) [Example 30, N-(2,3-dioxo-2,3,4,7,8,9-hexahydro-1H-cyclopenta[f]quinoxalin-8-yl)-acetamide], the IC50 turned out to be 87 µM in assay [1] (setting [5]) and 25 µM in assay [3] (setting [5]).
On to `CC(=O)NC1Cc2c([N+](=O)[O-])cc3[nH]c(=O)c(=O)[nH]c3c2C1` (stereo not shown) [Example 32, N-(6-nitro-2,3-dioxo-2,3,4,7,8,9-hexahydro-1H-cyclopenta[f]quinoxalin-8-yl)-acetamide], for which the IC50 in assay [1] (setting [5]) is 0.9 µM; in assay [2] (setting [5]), 1.3 µM; in assay [3] (setting [5]), 0.4 µM.
As for `O=C(NC1Cc2c([N+](=O)[O-])cc3[nH]c(=O)c(=O)[nH]c3c2C1)C1CCNCC1` (stereo not shown) [Example 35, 4-(6-nitro-2,3-dioxo-2,3,4,7,8,9-hexahydro-1H-cyclopenta[f]quinoxalin-8-ylcarbamoyl)piperidine hydrochloride], the IC50 in assay [1] (setting [5]) is 0.28 µM; in assay [2] (setting [5]), below 1 µM; in assay [3] (setting [5]), 0.12 µM.
`NC1Cc2c([N+](=O)[O-])cc3[nH]c(=O)c(=O)[nH]c3c2C1` (stereo not shown) [Example 38, 8-amino-6-nitro-4,7,8,9-tetrahydro-1H-cyclopenta[f]quinoxaline-2,3-dione hydrochloride]: the IC50 is 2.1 µM in assay [1] (setting [5]) and 2.6 µM in assay [3] (setting [5]).
Take `O=C(CCc1ccc(O)cc1)NC1CCc2c([N+](=O)[O-])cc3[nH]c(=O)c(=O)[nH]c3c2C1` (stereo not shown) [Example 41, 2-(6-nitro-2,3-dioxo-1,2,3,4,7,8,9,10-octahydrobenzo[f]quinoxaline-9-ylcarbamoyl)ethyl-(4-hydroxy)benzene]: in assay [2] (setting [4]), the IC50 was above 1 µM.
On to `O=C(Nc1ccccc1)NC1CCc2c([N+](=O)[O-])cc3[nH]c(=O)c(=O)[nH]c3c2C1` (stereo not shown) [Example 42, N-phenyl-N'-(6-nitro-2,3-dioxo-1,2,3,4,7,8,9,10-octahydrobenzo[f]quinoxalin-9-yl)urea], for which the IC50 came out at 0.83 µM in assay [1] (setting [4]), 0.18 µM in assay [2] (setting [4]) and 0.15 µM in assay [3] (setting [4]).
Consider `CNC1CCc2c([N+](=O)[O-])cc3[nH]c(=O)c(=O)[nH]c3c2C1` (stereo not shown) [Example 52, 9-Methylamino-6-nitro-1,4,7,8,9,10-hexahydrobenzo[f]quinoxaline-2,3-dione], for which the IC50 in assay [1] (setting [4]) was 2.8 µM; in assay [2] (setting [4]), above 1 µM; in assay [3] (setting [4]), 0.79 µM.
As to `CN(C(=O)c1ccccc1)C1CCc2c([N+](=O)[O-])cc3[nH]c(=O)c(=O)[nH]c3c2C1` (stereo not shown) [Example 53, N-Methyl-N-(6-nitro-2,3-dioxo-1,2,3,4,7,8,9,10-octahydro-benzo[f]quinoxalin-9-yl)-benzamide], the IC50 was 1.6 µM in assay [1] (setting [4]) and 1.1 µM in assay [3] (setting [4]).
For `O=C(NC1Cc2c([N+](=O)[O-])cc3[nH]c(=O)c(=O)[nH]c3c2C1)c1cccs1` (stereo not shown) [Example 54, Thiophene-2-carboxylic acid (6-nitro-2,3-dioxo-2,3,4,7,8,9-hexahydro-1H-cyclopenta[f]quinoxaline-8-yl)-amide], the results for the IC50 in assay [1] (setting [5]), in assay [2] (setting [5]) and in assay [3] (setting [5]) were 0.18 µM, 0.3 µM and 0.05 µM, respectively.
For the compound `O=C(NC1Cc2c([N+](=O)[O-])cc3[nH]c(=O)c(=O)[nH]c3c2C1)c1ccccn1` (stereo not shown) [Example 62, Pyridine-2-carboxylic acid (6-nitro-2,3-dioxo-2,3,4,7,8,9-hexahydro-1H-cyclopenta[f]quinoxalin-8-yl)-amide], the IC50 in assay [1] (setting [5]) is 1.9 µM; in assay [2] (setting [5]), above 1 µM; in assay [3] (setting [5]) it was 0.56 µM.
In the same order, the values of `O=C(NC1Cc2c([N+](=O)[O-])cc3[nH]c(=O)c(=O)[nH]c3c2C1)C1CCCN1` (stereo not shown) [Example 64, Pyrrolidine-2-carboxylic acid (6-nitro-2,3-dioxo-2,3,4,7,8,9-hexahydro-1H-cyclopenta[f]quinoxalin-8-yl)-amide] are 0.86 µM, above 1 µM and 0.64 µM.
As for `O=C(NC1Cc2c([N+](=O)[O-])cc3[nH]c(=O)c(=O)[nH]c3c2C1)c1cc2ccccc2s1` (stereo not shown) [Example 65, Benzo[b]thiophene-2-carboxylic acid (6-nitro-2,3,-dioxo-2,3,4,7,8,9-hexahydro-1H-cyclopenta[f]quinoxalin-8-yl)-amide], the results for the IC50 in assay [1] (setting [5]) and in assay [3] (setting [5]) were 8.1 µM and 1.3 µM, respectively.
In the same order, the values of `CN(C(=O)c1cccs1)C1Cc2c([N+](=O)[O-])cc3[nH]c(=O)c(=O)[nH]c3c2C1` (stereo not shown) [Example 67, Thiophene-2-carboxylic acid methyl-(6-nitro-2,3-dioxo-2,3,4,7,8,9-hexahydro-1H-cyclopenta[f]quinoxalin-8-yl)-amide] are 1.6 µM and 3.6 µM.
Turning to `CN(C(=O)c1ccccc1)C1Cc2c([N+](=O)[O-])cc3[nH]c(=O)c(=O)[nH]c3c2C1` (stereo not shown) [Example 68, N-Methyl-N-(6-nitro-2,3-dioxo-2,3,4,7,8,9-hexahydro-1H-cyclopenta[f]quinoxalin-8-yl)-benzamide], the results for the IC50 in assay [1] (setting [5]) and in assay [3] (setting [5]) were 1.9 µM and 7.4 µM, respectively.
As for `CN(C(=O)C1Cc2c([N+](=O)[O-])cc3[nH]c(=O)c(=O)[nH]c3c2C1)c1ccccc1` (stereo not shown) [Example 69, 6-Nitro-2,3-dioxo-2,3,4,7,8,9-hexahydro-1H-cyclopenta[f]quinoxaline-8-carboxylic acid methyl-phenyl-amide], the IC50 in assay [1] (setting [5]) was 1.6 µM; in assay [2] (setting [5]), above 100 µM; in assay [3] (setting [5]), 0.42 µM.
In the case of `O=C(O)C1Cc2c([N+](=O)[O-])cc3[nH]c(=O)c(=O)[nH]c3c2C1` (stereo not shown) [Example 78, 6-Nitro-2,3,-dioxo-2,3,4,7,8,9-hexahydro-1H-cyclopenta[f]quinoxaline-8-carboxylic acid], the half-inhibitory concentration (IC50) turned out to be 1.9 µM in assay [1] (setting [5]), 14 µM in assay [2] (setting [5]) and 0.42 µM in assay [3] (setting [5]).
On to `O=C(Nc1ccccc1)C1Cc2c([N+](=O)[O-])cc3[nH]c(=O)c(=O)[nH]c3c2C1` (stereo not shown) [Example 80, 6-Nitro-2,3,-dioxo-2,3,4,7,8,9-hexahydro-1H-cyclopenta[f]quinoxaline-8-carboxylic acid phenylamide], for which the IC50 in assay [1] (setting [5]) worked out at 3.9 µM; in assay [3] (setting [5]), 1.6 µM.
Take `O=c1[nH]c2cc([N+](=O)[O-])c3c(c2[nH]c1=O)CC(N1CCCC1)CC3` (stereo not shown) [Example 86, 6-Nitro-9-pyrrolidin-1-yl-1,4,7,8,9,10-hexahydro-benzo[f]quinoxaline-2,3-dione]: the IC50 in assay [1] (setting [4]) was found to be 3.8 µM; in assay [3] (setting [4]) it was 2.2 µM.
As for `CN(C)C1Cc2c([N+](=O)[O-])cc3[nH]c(=O)c(=O)[nH]c3c2C1` (stereo not shown) [Example 90, 8-Dimethylamino-6-nitro-4,7,8,9-tetrahydro-1H-cyclopenta[f]quinoxaline-2,3-dione], the IC50 in assay [1] (setting [5]) was 2.6 µM; in assay [2] (setting [5]), 12 µM; in assay [3] (setting [5]), 0.91 µM.
Take `CNC1Cc2c([N+](=O)[O-])cc3[nH]c(=O)c(=O)[nH]c3c2C1` (stereo not shown) [Example 100, 8-Methylamino-6-nitro-4,7,8,9-tetrahydro-1H-cyclopenta[f]quinoxaline-2,3-dione methane sulfonate salt]: the IC50 amounted to 2.2 µM in assay [1] (setting [5]) and 1.2 µM in assay [3] (setting [5]).
In the same order, the values of `O=C(CN(CCO)CCO)NC1Cc2c([N+](=O)[O-])cc3[nH]c(=O)c(=O)[nH]c3c2C1` (stereo not shown) [Example 101, 2-[Bis-(2-hydroxy-ethyl)-amino]-N-(6-nitro-2,3-dioxo-2,3,4,7,8,9-hexahydro-1H-cyclopenta[f]quinoxalin-8-yl)-acetamide] are 1.4 µM and 1.1 µM.
`O=c1[nH]c2cc([N+](=O)[O-])c3c(c2[nH]c1=O)CC(N1CCCC1)C3` (stereo not shown) [Example 104, 6-Nitro-8-pyrrolidin-1-yl-4,7,8,9-tetrahydro-1H-cyclopenta[f]quinoxaline-2,3-dione]: the concentration for half-maximal inhibition (IC50) in assay [1] (setting [5]) amounted to 2.2 µM; in assay [3] (setting [5]) it was 1.5 µM.
`CC(=O)N(C)C1Cc2c([N+](=O)[O-])cc3[nH]c(=O)c(=O)[nH]c3c2C1` (stereo not shown) [Example 105, N-Methyl-N-(6-nitro-2,3,-dioxo-2,3,4,7,8,9-hexahydro-1H-cyclopenta[f]quinoxaline-8-yl)acetamide]: the IC50 in assay [1] (setting [5]) and in assay [3] (setting [5]) was 2.2 µM each time.
On to `O=c1[nH]c2cc([N+](=O)[O-])c3c(c2[nH]c1=O)CC(N1CCCCC1)C3` (stereo not shown) [Example 108, 6-Nitro-8-piperidin-1-yl-4,7,8,9-tetrahydro-1H-cyclopenta[f]quinoxaline-2,3-dione], for which the IC50 turned out to be 1.6 µM in assay [1] (setting [5]) and 3.4 µM in assay [3] (setting [5]).
Taken in the same sequence, the figures for `CCN(CC)C1Cc2c([N+](=O)[O-])cc3[nH]c(=O)c(=O)[nH]c3c2C1` (stereo not shown) [Example 109, 8-Diethylamino-6-nitro-4,7,8,9,-tetrahydro-1H-cyclopenta[f]quinoxaline-2,3-dione] were 5.4 µM and 5.1 µM.
